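All cell lines were grown in 96-well plates and treated with compound for 48 hours. GI50 = concentration required for 50% inhibition of growth. TGI marks complete inhibition of growth.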
Tests used:
Experiment in all cases: NCI-60 cell line screen, 48 h
PC-3 prostate = tested on: PC-3 prostate
OVCAR-5 ovarian = tested on: OVCAR-5 ovarian
NCI-H522 lung = tested on: NCI-H522 lung
OVCAR-4 ovarian = tested on: OVCAR-4 ovarian
MDA-MB-468 breast = tested on: MDA-MB-468 breast
HT29 colon = tested on: HT29 colon
SK-OV-3 ovarian = tested on: SK-OV-3 ovarian
RPMI-8226 leukemia = tested on: RPMI-8226 leukemia
MDA-MB-231 breast = tested on: MDA-MB-231 breast
OVCAR-8 ovarian = tested on: OVCAR-8 ovarian
BT-549 breast = tested on: BT-549 breast
A549 NSCLC = tested on: A549 NSCLC
CCRF-CEM leukemia = tested on: CCRF-CEM leukemia
DU-145 prostate = tested on: DU-145 prostate
SF-268 CNS = tested on: SF-268 CNS
HL-60(TB) leukemia = tested on: HL-60(TB) leukemia
SK-MEL-5 melanoma = tested on: SK-MEL-5 melanoma
M14 melanoma = tested on: M14 melanoma
TK-10 renal = tested on: TK-10 renal
HOP-62 NSCLC = tested on: HOP-62 NSCLC
HCC-2998 colon = tested on: HCC-2998 colon
786-0 renal = tested on: 786-0 renal
MDA-MB-435 = tested on: MDA-MB-435
NCI/ADR-RES ovarian = tested on: NCI/ADR-RES ovarian
ACHN renal = tested on: ACHN renal
HS 578T breast = tested on: HS 578T breast
MOLT-4 leukemia = tested on: MOLT-4 leukemia
A498 renal = tested on: A498 renal
SF-539 CNS = tested on: SF-539 CNS
U251 CNS = tested on: U251 CNS
SNB-75 CNS = tested on: SNB-75 CNS
NCI-H460 lung = tested on: NCI-H460 lung
CAKI-1 renal = tested on: CAKI-1 renal
KM12 colon = tested on: KM12 colon
OVCAR-3 ovarian = tested on: OVCAR-3 ovarian
UACC-62 melanoma = tested on: UACC-62 melanoma
COLO 205 colon = tested on: COLO 205 colon
T-47D breast = tested on: T-47D breast
HCT-15 colon = tested on: HCT-15 colon
SF-295 CNS = tested on: SF-295 CNS
UACC-257 melanoma = tested on: UACC-257 melanoma
SN12C renal = tested on: SN12C renal
HOP-92 NSCLC = tested on: HOP-92 NSCLC
SK-MEL-28 melanoma = tested on: SK-MEL-28 melanoma
NCI-H226 lung = tested on: NCI-H226 lung
EKVX NSCLC = tested on: EKVX NSCLC
SNB-19 CNS = tested on: SNB-19 CNS
IGROV1 ovarian = tested on: IGROV1 ovarian
LOX IMVI melanoma = tested on: LOX IMVI melanoma
RXF 393 renal = tested on: RXF 393 renal
MALME-3M melanoma = tested on: MALME-3M melanoma
SW-620 colon = tested on: SW-620 colon
HCT-116 colon = tested on: HCT-116 colon
MCF7 breast = tested on: MCF7 breast
SK-MEL-2 melanoma = tested on: SK-MEL-2 melanoma
UO-31 renal = tested on: UO-31 renal
K-562 leukemia = tested on: K-562 leukemia
NCI-H23 lung = tested on: NCI-H23 lung

COc1ccc(-c2cc(C(=O)N=Nc3c(O)[nH]c4ccc(Br)cc34)c3ccccc3n2)cc1
GI50 (PC-3 prostate): 8.46 µM
TGI (PC-3 prostate): > 100 µM
GI50 (OVCAR-5 ovarian): 14.3 µM
TGI (OVCAR-5 ovarian): 27.6 µM
GI50 (NCI-H522 lung): 16.9 µM
TGI (NCI-H522 lung): 46.3 µM
GI50 (OVCAR-4 ovarian): 17.1 µM
TGI (OVCAR-4 ovarian): 72.2 µM
GI50 (MDA-MB-468 breast): 10.4 µM
TGI (MDA-MB-468 breast): 25.3 µM
GI50 (HT29 colon): 3.62 µM
TGI (HT29 colon): 14.5 µM
GI50 (SK-OV-3 ovarian): 16.1 µM
TGI (SK-OV-3 ovarian): 34.8 µM
GI50 (RPMI-8226 leukemia): 6.37 µM
TGI (RPMI-8226 leukemia): > 100 µM
GI50 (MDA-MB-231 breast): 6.94 µM
TGI (MDA-MB-231 breast): 22.9 µM
GI50 (OVCAR-8 ovarian): 12.3 µM
TGI (OVCAR-8 ovarian): 31.4 µM
GI50 (BT-549 breast): 27.8 µM
TGI (BT-549 breast): 48.5 µM
GI50 (A549 NSCLC): 9.06 µM
TGI (A549 NSCLC): 51.6 µM
GI50 (CCRF-CEM leukemia): 3.09 µM
TGI (CCRF-CEM leukemia): > 100 µM
GI50 (DU-145 prostate): 10.9 µM
TGI (DU-145 prostate): 30.1 µM
GI50 (SF-268 CNS): 17.9 µM
TGI (SF-268 CNS): 48.4 µM
GI50 (HL-60(TB) leukemia): 24.7 µM
TGI (HL-60(TB) leukemia): > 100 µM
GI50 (SK-MEL-5 melanoma): 15.8 µM
TGI (SK-MEL-5 melanoma): 31.8 µM
GI50 (M14 melanoma): 8.54 µM
TGI (M14 melanoma): 44.4 µM
GI50 (TK-10 renal): 22 µM
TGI (TK-10 renal): 41.2 µM
GI50 (HOP-62 NSCLC): 16.5 µM
TGI (HOP-62 NSCLC): 36.7 µM
GI50 (HCC-2998 colon): 12.9 µM
TGI (HCC-2998 colon): 26.4 µM
GI50 (786-0 renal): 19.4 µM
TGI (786-0 renal): 47.8 µM
GI50 (MDA-MB-435): 13.3 µM
TGI (MDA-MB-435): 43.8 µM
GI50 (NCI/ADR-RES ovarian): 8.75 µM
TGI (NCI/ADR-RES ovarian): 33.9 µM
GI50 (ACHN renal): 11.1 µM
TGI (ACHN renal): 24.1 µM
GI50 (HS 578T breast): 14.3 µM
TGI (HS 578T breast): 55.1 µM
GI50 (MOLT-4 leukemia): 5.08 µM
TGI (MOLT-4 leukemia): > 100 µM
GI50 (A498 renal): 20.8 µM
TGI (A498 renal): 36.8 µM
GI50 (SF-539 CNS): 15.6 µM
TGI (SF-539 CNS): 29.7 µM
GI50 (U251 CNS): 3.4 µM
TGI (U251 CNS): > 100 µM
GI50 (SNB-75 CNS): 14.1 µM
TGI (SNB-75 CNS): 37.9 µM
GI50 (NCI-H460 lung): 3.7 µM
TGI (NCI-H460 lung): 16.1 µM
GI50 (CAKI-1 renal): 13.9 µM
TGI (CAKI-1 renal): 40.1 µM
GI50 (KM12 colon): 19 µM
TGI (KM12 colon): 85.7 µM
GI50 (OVCAR-3 ovarian): 12.3 µM
TGI (OVCAR-3 ovarian): 36.1 µM
GI50 (UACC-62 melanoma): 15.6 µM
TGI (UACC-62 melanoma): 30.2 µM
GI50 (COLO 205 colon): 16.1 µM
TGI (COLO 205 colon): 47.5 µM
GI50 (T-47D breast): 19.8 µM
TGI (T-47D breast): 65.8 µM
GI50 (HCT-15 colon): 3.23 µM
TGI (HCT-15 colon): 11.9 µM
GI50 (SF-295 CNS): 13.7 µM
TGI (SF-295 CNS): 27.2 µM
GI50 (UACC-257 melanoma): 16.6 µM
TGI (UACC-257 melanoma): 37.7 µM
GI50 (SN12C renal): 14.9 µM
TGI (SN12C renal): 30.3 µM
GI50 (HOP-92 NSCLC): 13.3 µM
TGI (HOP-92 NSCLC): 40.1 µM
GI50 (SK-MEL-28 melanoma): 14.5 µM
TGI (SK-MEL-28 melanoma): 28.1 µM
GI50 (NCI-H226 lung): 14.2 µM
TGI (NCI-H226 lung): 45.7 µM
GI50 (EKVX NSCLC): 10.5 µM
TGI (EKVX NSCLC): 22.4 µM
GI50 (SNB-19 CNS): 15.5 µM
TGI (SNB-19 CNS): 28.9 µM
GI50 (IGROV1 ovarian): 11.2 µM
TGI (IGROV1 ovarian): 25.9 µM
GI50 (LOX IMVI melanoma): 3.33 µM
TGI (LOX IMVI melanoma): 12.3 µM
GI50 (RXF 393 renal): 10 µM
TGI (RXF 393 renal): 22.6 µM
GI50 (MALME-3M melanoma): 15.6 µM
TGI (MALME-3M melanoma): 34.9 µM
GI50 (SW-620 colon): 2.28 µM
TGI (SW-620 colon): 6.83 µM
GI50 (HCT-116 colon): 5.55 µM
TGI (HCT-116 colon): 66.4 µM
GI50 (MCF7 breast): 6.26 µM
TGI (MCF7 breast): 26.5 µM
GI50 (SK-MEL-2 melanoma): 18.2 µM
TGI (SK-MEL-2 melanoma): 33.9 µM
GI50 (UO-31 renal): 12.5 µM
TGI (UO-31 renal): 25 µM
GI50 (K-562 leukemia): 4.28 µM
TGI (K-562 leukemia): > 100 µM
GI50 (NCI-H23 lung): 3.09 µM
TGI (NCI-H23 lung): 13.3 µM

From PubChem BioAssay (NCI)
